Where “and” joins values, the source holds several entries; their conditions need not be identical. Identical values can stand only once. Like-named read-outs stand apart in the source and are kept apart here.
Assay: Toxicokinetic study of AAI after single oral administration (plasma, UPLC-QQQ-MS/MS, NCA)
Type: in vivo, F344 rats
Conditions: for tmax: read-out: tmax
Method: For toxicokinetic study, forty-eight […] F344 rats (specific pathogen-free grade) were enrolled in the study, with equal numbers of males and females. All rats were purchased from Charles River Laboratory (Raleigh, NC, USA). All rats were confirmed to be healthy based on a series of physical health examinations. Rats were acclimated for 5 days at a temperature of 20–26 °C, humidity of 40–70% and a 12 h light/dark circle. The rats were randomly divided into four groups (n = 12 per group), with equal numbers of males and females in each group. The allocation was performed separately for each sex (female and male) based on body weight using a stratified randomization method. During the experiment, rats were fasted and had access to water ad libitum. To minimize confounding factors, treatments and measurements were randomized within each session. Cages from different groups were evenly distributed across racks in the same room to reduce bias from light and temperature. This study was approved by the Institutional Animal Care and Use Committee (IACUC) of the National Drug Safety Evaluation Center (Approval No. IACUC-2024-K011, 20 September 2024).
During the experiment, each rat received a single oral administration via gastric gavage. Rats in the control group were administered with 0.5% sodium carboxymethyl cellulose (CMC-Na) suspension. For the treatment groups, rats were administered with gavage solution containing 10, 30 and 100 mg/kg of AAI. The gavage solution was prepared by uniformly dispersing the reference standard of AAI in the 0.5% CMC-Na solution. After oral administration, blood samples were collected from the postorbital vein plex of rats and immediately placed in EDTA tubes. To capture potential reabsorption which might occur long after AAI administration, 15 blood sampling time points were established for each dose group. A sparse sampling approach was employed to avoid excessive blood loss in each rat. For each dosage, 12 rats were subdivided into two groups. For the first group, blood samples were collected from 6 rats at 10, 30, 60, 90, 120, 240, 420, and 600 min after AAI administration; for the second group, blood samples were collected from these 6 rats at 12, 14, 16, 18, 20, 22, and 24 h after AAI administration. Therefore, the experimental design ensured that six biological replicates were obtained for each sampling time point, enabling robust toxicokinetic analysis.
Rat plasma samples were prepared as follows: Blood was centrifuged at 13,200 rpm for 10 min. Then, 25 μL of retrieved plasma was transferred to 2 mL centrifuge tubes, followed by the addition of 75 μL of methanol/acetonitrile solution (v/v, 1∶1) containing indomethacin as internal standard (IS). After vortexing for 2 min and centrifugation for 10 min at 13,200 rpm, the supernatant was used as study samples for quantitative analysis. Quality control samples (QCs) and calibration standards were prepared by spiking blank plasma with different concentrations of AAI standard solution. The QCs and calibration standards were processed using identical procedures as the study samples.
A method of ultra-performance liquid chromatography coupled with triple quadrupole tandem mass spectrometry (UPLC-QQQ-MS/MS) was developed to achieve the quantitation of AAI in rat plasma. The LC-MS/MS analysis was performed using an Acquity UPLC I-Class system coupled with an Xevo TQ XS spectrometer (Waters, Milford, MA, USA). An Acquity UPLC BEH C18 column (2.1 mm × 50 mm, 1.7 μm, Waters, Milford, MA, USA) was employed for chromatographic separation. The mobile phases consisted of water containing 5 mmol/L ammonium formate/0.1% formic acid (A) and acetonitrile (B). The gradient elution was set as follows: 1–4 min, 10–90% B; 4–5 min, 90% B; 5–5.01 min, 90–10% B; 5.01–7 min, 10% B. The flow rate was set at 0.4 mL/min. The column temperature was maintained at 40 °C. A sample volume of 2 μL was injected for analysis. […]

[1] = 10 mg/kg single oral, rat plasma, mean ± SD
[2] = 30 mg/kg single oral, rat plasma, mean ± SD
[3] = 100 mg/kg single oral, rat plasma, mean ± SD
[4] = both sexes, F344, rat, plasma, po, 10 mg/kg, 10 mg/kg single oral, rat plasma, mean ± SD
[5] = both sexes, F344, rat, plasma, po, 30 mg/kg, 30 mg/kg single oral, rat plasma, mean ± SD
[6] = both sexes, F344, rat, plasma, po, 30 mg/kg, medium-dose (30 mg/kg), individual pooled profiles (animal pairs), Table S4
[7] = both sexes, F344, rat, plasma, po, 100 mg/kg, 100 mg/kg single oral, rat plasma, mean ± SD
[8] = high-dose (100 mg/kg), individual pooled profiles (animal pairs), Table S4, 100 mg/kg

COc1cccc2c1cc([N+](=O)[O-])c1c(C(=O)O)cc3c(c12)OCO3 [AAI, Aristolochic acid I]
CL/F [1]: 1.66 ± 0.37 L/h
Vd [1]: 3.36 ± 1.97 L
CL/F [2]: 1.22 ± 0.30 L/h
Vd [2]: 4.67 ± 0.81 L
CL/F [3]: 1.13 ± 0.59 L/h
Vd [3]: 8.42 ± 7.24 L
AUC(0-t) (F344, rat, plasma, po, 10 mg/kg, low-dose (10 mg/kg), individual pooled profiles (animal pairs), Table S4): 843 ng·h/mL
Cmax (F344, rat, plasma, po, 10 mg/kg, low-dose (10 mg/kg), individual pooled profiles (animal pairs), Table S4, read-out: Cmax): 562 ng/mL
AUC(0-t) [4]: 969 ± 140 ng·h/mL
half-life [4]: 1.31 ± 0.51 h
Cmax (both sexes, F344, rat, plasma, po, 10 mg/kg, 10 mg/kg single oral, rat plasma, mean ± SD, read-out: Cmax): 457 ± 129 ng/mL
tmax [4]: 0.69 ± 0.6 h
concentration at 14 h (both sexes, F344, rat, plasma, po, 10 mg/kg, low-dose (10 mg/kg oral), 14 h, individual rats M104,M105,M106,F104,F105,F106, below LLOQ set to zero): 0 ng/mL
concentration at 16 h (both sexes, F344, rat, plasma, po, 10 mg/kg, low-dose (10 mg/kg oral), 16 h, individual rats M104,M105,M106,F104,F105,F106, below LLOQ set to zero): 0 ng/mL
concentration at 18 h (both sexes, F344, rat, plasma, po, 10 mg/kg, low-dose (10 mg/kg oral), 18 h, individual rats M104,M105,M106,F104,F105,F106, below LLOQ set to zero): 0 ng/mL
concentration at 20 h (both sexes, F344, rat, plasma, po, 10 mg/kg, low-dose (10 mg/kg oral), 20 h, individual rats M104,M105,M106,F104,F105,F106, below LLOQ set to zero): 0 ng/mL
concentration at 22 h (both sexes, F344, rat, plasma, po, 10 mg/kg, low-dose (10 mg/kg oral), 22 h, individual rats M104,M105,M106,F104,F105,F106, below LLOQ set to zero): 0 ng/mL
concentration at 24 h (both sexes, F344, rat, plasma, po, 10 mg/kg, low-dose (10 mg/kg oral), 24 h, individual rats M104,M105,M106,F104,F105,F106, below LLOQ set to zero): 0 ng/mL
AUC(0-t) (both sexes, F344, rat, plasma, po, 10 mg/kg, low-dose (10 mg/kg), individual pooled profiles (animal pairs), Table S4): 825 ng·h/mL
AUC(0-t) [5]: 3950 ± 543 ng·h/mL
half-life [5]: 2.79 ± 0.74 h
Cmax (both sexes, F344, rat, plasma, po, 30 mg/kg, 30 mg/kg single oral, rat plasma, mean ± SD, read-out: Cmax): 2450 ± 561 ng/mL
tmax [5]: 0.58 ± 0.17 h
concentration at 1.5 h (both sexes, F344, rat, plasma, po, 30 mg/kg, medium-dose (30 mg/kg oral), 1.5 h, individual rats M201,M202,M203,F201,F202,F203): 413 ng/mL
AUC(0-t) [6]: 3450 ng·h/mL
tmax [6]: 0.5 h
AUC(0-t) [7]: 17100 ng·h/mL
half-life [7]: 3.01 ± 0.45 h
Cmax (both sexes, F344, rat, plasma, po, 100 mg/kg, 100 mg/kg single oral, rat plasma, mean ± SD, read-out: Cmax): 9110 ± 2180 ng/mL
tmax [7]: 1.17 ± 0.37 h
Cmax (both sexes, F344, rat, plasma, po, 100 mg/kg, high-dose (100 mg/kg), individual pooled profiles (animal pairs), Table S4, read-out: Cmax): 9010 ng/mL
tmax (both sexes, F344, rat, plasma, po, 100 mg/kg, high-dose (100 mg/kg), individual pooled profiles (animal pairs), Table S4): 2 h
secondary elevation of plasma AAI concentration, time post-administration (high- and medium-dose groups (100, 30 mg/kg oral)): 14 to 24 h
AUC0→t [8]: 17484.11 ng·h/mL and 17260.39 ng·h/mL and 32135.80 ng·h/mL and 9262.46 ng·h/mL and 9698.81 ng·h/mL and 16821.21 ng·h/mL
CL/F [8]: 0.76 L/h and 0.74 L/h and 0.40 L/h and 2.04 L/h and 1.79 L/h and 1.07 L/h
Cmax [8]: 9980.23 ng/mL and 12351.60 ng/mL and 6490.96 ng/mL and 6245.89 ng/mL and 10563.14 ng/mL

Source: PMC12656546, “Enterohepatic Recirculation-Mediated Reabsorption of Aristolochic Acid I: Revealed by Toxicokinetics and Metabolite Identification in Rats” (Toxics, 2025)
